# Measured values reported in patent US10472341B2, “Bicyclic tetrahydrothiazepine derivatives useful for the treatment of neoplastic and/or infectious diseases” (APEIRON BIOLOGICS AG, priority 2015, dated 2019).
# Test system: CD8 cells & tumor cell lines (K562, M21, CRL2505, MDA-MB-231, A549, TC71, MG63, RD, U138MG)
# Experiment: Isolated CD8 cells in co-culture with tumor cell lines of diverse origin: IFN-gamma, IL-2, granzyme
# Assay type: cell-based, human
# Protocol: Isolated PBMCs, NK cells or CD8 positive cells were plated in Xvivo medium at 1.5*10^5 cells per in 96 well culture plates in the presence of 0.3*10^4 tumor cells where indicated. Cytokine secretion was determined by ELISA, immune cell activation (using Beckman-Coulter Abs CD25-PC5, CD69-PC7), cell viability and numbers by flow cytometry (Beckman-Coulter FC500 or Gallios) using 7-AAD exclusion as criterion for living cells. PBMCs were isolated and incubated with and without compounds, either alone or in co-culture with different tumor cells.
structure (smiles),measurement,setting,value
"Cl.N[C@H]1CS(=O)(=O)c2cc(F)c(C(=O)NCCCC(F)(F)F)cc2N(Cc2ccc(Cl)cc2)C1=O [Example 70, (3R)-3-amino-5-[(4-chlorophenyl)methyl]-8-fluoro-1,1,4-trioxo-N-(4,4,4-trifluoro-butyl)-2,3,4,5-tetrahydro-1λ^6,5-benzothiazepine-7-carboxamide hydrochloride]",Granzyme,"CD8 cells & A549, 0.1 μM",0.04 ng/mL
same,IFN-gamma,"CD8 cells & A549, 0.1 μM",0.01 ng/mL
same,IL-2,"CD8 cells & A549, 0.1 μM",0.00 ng/mL
same,Granzyme,"CD8 cells & A549, 0.3 μM",0.09 ng/mL
same,IFN-gamma,"CD8 cells & A549, 0.3 μM",0.03 ng/mL
same,IL-2,"CD8 cells & A549, 0.3 μM",0.15 ng/mL
same,Granzyme,"CD8 cells & A549, 1 μM",0.10 ng/mL
same,IFN-gamma,"CD8 cells & A549, 1 μM",0.08 ng/mL
same,IL-2,"CD8 cells & A549, 1 μM",0.36 ng/mL
same,Granzyme,"CD8 cells & A549, 3 μM",0.07 ng/mL
same,IFN-gamma,"CD8 cells & A549, 3 μM",0.07 ng/mL
same,IL-2,"CD8 cells & A549, 3 μM",0.28 ng/mL
same,Granzyme,"CD8 cells & A549, 10 μM",0.16 ng/mL
same,IFN-gamma,"CD8 cells & A549, 10 μM",0.16 ng/mL
same,IL-2,"CD8 cells & A549, 10 μM",0.59 ng/mL
same,Granzyme,"CD8 cells & K562, 0.1 μM",1.58 ng/mL
same,IFN-gamma,"CD8 cells & K562, 0.1 μM",6.97 ng/mL
same,IL-2,"CD8 cells & K562, 0.1 μM",3.86 ng/mL
same,Granzyme,"CD8 cells & K562, 0.3 μM",2.38 ng/mL
same,IFN-gamma,"CD8 cells & K562, 0.3 μM",7.57 ng/mL
same,IL-2,"CD8 cells & K562, 0.3 μM",3.20 ng/mL
same,Granzyme,"CD8 cells & K562, 1 μM",1.81 ng/mL
same,IFN-gamma,"CD8 cells & K562, 1 μM",11.23 ng/mL
same,IL-2,"CD8 cells & K562, 1 μM",4.08 ng/mL
same,Granzyme,"CD8 cells & K562, 3 μM",3.91 ng/mL
same,IFN-gamma,"CD8 cells & K562, 3 μM",8.44 ng/mL
same,IL-2,"CD8 cells & K562, 3 μM",3.72 ng/mL
same,Granzyme,"CD8 cells & K562, 10 μM",4.83 ng/mL
same,IFN-gamma,"CD8 cells & K562, 10 μM",8.26 ng/mL
same,IL-2,"CD8 cells & K562, 10 μM",2.82 ng/mL
same,Granzyme,"CD8 cells & M21, 0.1 μM",0.24 ng/mL
same,IFN-gamma,"CD8 cells & M21, 0.1 μM",0.00 ng/mL
same,IL-2,"CD8 cells & M21, 0.1 μM",0.39 ng/mL
same,Granzyme,"CD8 cells & M21, 0.3 μM",0.53 ng/mL
same,IFN-gamma,"CD8 cells & M21, 0.3 μM",0.02 ng/mL
same,IL-2,"CD8 cells & M21, 0.3 μM",0.31 ng/mL
same,Granzyme,"CD8 cells & M21, 1 μM",0.41 ng/mL
same,IFN-gamma,"CD8 cells & M21, 1 μM",0.06 ng/mL
same,IL-2,"CD8 cells & M21, 1 μM",0.67 ng/mL
same,Granzyme,"CD8 cells & M21, 3 μM",0.40 ng/mL
same,IFN-gamma,"CD8 cells & M21, 3 μM",0.03 ng/mL
same,IL-2,"CD8 cells & M21, 3 μM",0.64 ng/mL
same,Granzyme,"CD8 cells & M21, 10 μM",0.50 ng/mL
same,IFN-gamma,"CD8 cells & M21, 10 μM",0.10 ng/mL
same,IL-2,"CD8 cells & M21, 10 μM",0.47 ng/mL
same,Granzyme,"CD8 cells & MDA-MB-231, 0.1 μM",1.86 ng/mL
same,IFN-gamma,"CD8 cells & MDA-MB-231, 0.1 μM",10.72 ng/mL
same,IL-2,"CD8 cells & MDA-MB-231, 0.1 μM",1.51 ng/mL
same,Granzyme,"CD8 cells & MDA-MB-231, 0.3 μM",3.40 ng/mL
same,IFN-gamma,"CD8 cells & MDA-MB-231, 0.3 μM",20.55 ng/mL
same,IL-2,"CD8 cells & MDA-MB-231, 0.3 μM",2.14 ng/mL
same,Granzyme,"CD8 cells & MDA-MB-231, 1 μM",4.23 ng/mL
same,IFN-gamma,"CD8 cells & MDA-MB-231, 1 μM",22.31 ng/mL
same,IL-2,"CD8 cells & MDA-MB-231, 1 μM",2.40 ng/mL
same,Granzyme,"CD8 cells & MDA-MB-231, 3 μM",5.20 ng/mL
same,IFN-gamma,"CD8 cells & MDA-MB-231, 3 μM",25.24 ng/mL
same,IL-2,"CD8 cells & MDA-MB-231, 3 μM",3.21 ng/mL
same,Granzyme,"CD8 cells & MDA-MB-231, 10 μM",5.93 ng/mL
same,IFN-gamma,"CD8 cells & MDA-MB-231, 10 μM",24.22 ng/mL
same,IL-2,"CD8 cells & MDA-MB-231, 10 μM",3.63 ng/mL
same,Granzyme,"CD8 cells & MG63, 0.1 μM",0.23 ng/mL
same,IFN-gamma,"CD8 cells & MG63, 0.1 μM",0.92 ng/mL
same,IL-2,"CD8 cells & MG63, 0.1 μM",0.00 ng/mL
same,Granzyme,"CD8 cells & MG63, 0.3 μM",0.29 ng/mL
same,IFN-gamma,"CD8 cells & MG63, 0.3 μM",1.43 ng/mL
same,IL-2,"CD8 cells & MG63, 0.3 μM",0.00 ng/mL
same,Granzyme,"CD8 cells & MG63, 1 μM",0.28 ng/mL
same,IFN-gamma,"CD8 cells & MG63, 1 μM",1.79 ng/mL
same,IL-2,"CD8 cells & MG63, 1 μM",0.00 ng/mL
same,Granzyme,"CD8 cells & MG63, 3 μM",0.38 ng/mL
same,IFN-gamma,"CD8 cells & MG63, 3 μM",1.92 ng/mL
same,IL-2,"CD8 cells & MG63, 3 μM",0.00 ng/mL
same,Granzyme,"CD8 cells & MG63, 10 μM",0.44 ng/mL
same,IFN-gamma,"CD8 cells & MG63, 10 μM",2.36 ng/mL
same,IL-2,"CD8 cells & MG63, 10 μM",0.00 ng/mL
same,Granzyme,"CD8 cells & RD, 0.1 μM",0.09 ng/mL
same,IFN-gamma,"CD8 cells & RD, 0.1 μM",0.12 ng/mL
same,IL-2,"CD8 cells & RD, 0.1 μM",0.00 ng/mL
same,Granzyme,"CD8 cells & RD, 0.3 μM",0.16 ng/mL
same,IFN-gamma,"CD8 cells & RD, 0.3 μM",0.45 ng/mL
same,IL-2,"CD8 cells & RD, 0.3 μM",0.00 ng/mL
same,Granzyme,"CD8 cells & RD, 1 μM",0.20 ng/mL
same,IFN-gamma,"CD8 cells & RD, 1 μM",0.54 ng/mL
same,IL-2,"CD8 cells & RD, 1 μM",0.00 ng/mL
same,Granzyme,"CD8 cells & RD, 3 μM",0.17 ng/mL
same,IFN-gamma,"CD8 cells & RD, 3 μM",0.65 ng/mL
same,IL-2,"CD8 cells & RD, 3 μM",0.00 ng/mL
same,Granzyme,"CD8 cells & RD, 10 μM",0.30 ng/mL
same,IFN-gamma,"CD8 cells & RD, 10 μM",1.59 ng/mL
same,IL-2,"CD8 cells & RD, 10 μM",0.00 ng/mL
same,Granzyme,"CD8 cells & TC71, 0.1 μM",0.06 ng/mL
same,IFN-gamma,"CD8 cells & TC71, 0.1 μM",0.04 ng/mL
same,IL-2,"CD8 cells & TC71, 0.1 μM",0.58 ng/mL
same,Granzyme,"CD8 cells & TC71, 0.3 μM",0.08 ng/mL
same,IFN-gamma,"CD8 cells & TC71, 0.3 μM",0.11 ng/mL
same,IL-2,"CD8 cells & TC71, 0.3 μM",0.97 ng/mL
same,Granzyme,"CD8 cells & TC71, 1 μM",0.10 ng/mL
same,IFN-gamma,"CD8 cells & TC71, 1 μM",0.14 ng/mL
same,IL-2,"CD8 cells & TC71, 1 μM",1.25 ng/mL
same,Granzyme,"CD8 cells & TC71, 3 μM",0.10 ng/mL
same,IFN-gamma,"CD8 cells & TC71, 3 μM",0.27 ng/mL
same,IL-2,"CD8 cells & TC71, 3 μM",1.14 ng/mL
same,Granzyme,"CD8 cells & TC71, 10 μM",0.15 ng/mL
same,IFN-gamma,"CD8 cells & TC71, 10 μM",0.38 ng/mL
same,IL-2,"CD8 cells & TC71, 10 μM",1.57 ng/mL
same,Granzyme,"CD8 cells & U138MG, 0.1 μM",0.03 ng/mL
same,IFN-gamma,"CD8 cells & U138MG, 0.1 μM",0.00 ng/mL
same,IL-2,"CD8 cells & U138MG, 0.1 μM",0.00 ng/mL
same,Granzyme,"CD8 cells & U138MG, 0.3 μM",0.04 ng/mL
same,IFN-gamma,"CD8 cells & U138MG, 0.3 μM",0.01 ng/mL
same,IL-2,"CD8 cells & U138MG, 0.3 μM",0.00 ng/mL
same,Granzyme,"CD8 cells & U138MG, 1 μM",0.01 ng/mL
same,IFN-gamma,"CD8 cells & U138MG, 1 μM",0.02 ng/mL
same,IL-2,"CD8 cells & U138MG, 1 μM",0.04 ng/mL
same,Granzyme,"CD8 cells & U138MG, 3 μM",0.03 ng/mL
same,IFN-gamma,"CD8 cells & U138MG, 3 μM",0.02 ng/mL
same,IL-2,"CD8 cells & U138MG, 3 μM",0.02 ng/mL
same,Granzyme,"CD8 cells & U138MG, 10 μM",0.05 ng/mL
same,IFN-gamma,"CD8 cells & U138MG, 10 μM",0.06 ng/mL
same,IL-2,"CD8 cells & U138MG, 10 μM",0.08 ng/mL
same,Granzyme,"CD8 cells only, 0.1 μM",0.05 ng/mL
same,IFN-gamma,"CD8 cells only, 0.1 μM",0.00 ng/mL
same,IL-2,"CD8 cells only, 0.1 μM",0.00 ng/mL
same,Granzyme,"CD8 cells only, 0.3 μM",0.04 ng/mL
same,IFN-gamma,"CD8 cells only, 0.3 μM",0.00 ng/mL
same,IL-2,"CD8 cells only, 0.3 μM",0.00 ng/mL
same,Granzyme,"CD8 cells only, 1 μM",0.05 ng/mL
same,IFN-gamma,"CD8 cells only, 1 μM",0.00 ng/mL
same,IL-2,"CD8 cells only, 1 μM",0.00 ng/mL
same,Granzyme,"CD8 cells only, 3 μM",0.04 ng/mL
same,IFN-gamma,"CD8 cells only, 3 μM",0.00 ng/mL
same,IL-2,"CD8 cells only, 3 μM",0.00 ng/mL
same,Granzyme,"CD8 cells only, 10 μM",0.05 ng/mL
same,IFN-gamma,"CD8 cells only, 10 μM",0.00 ng/mL
same,IL-2,"CD8 cells only, 10 μM",0.00 ng/mL
